Measurements published in PubChem BioAssay AID256 (DTP/NCI, 2004).
Where “and” joins values, the source holds several entries; their conditions need not be identical. Identical values can stand only once. Toxic doses and inconclusive results are not listed.

Tested on: CD2F1 mice, L1210 leukemia ip, survival T/C
Experiment: NCI In Vivo Anticancer Drug Screen. Data for tumor model L1210 Leukemia (intraperitoneal) in CD2F1 (CDF1) mice
Conditions: higher = longer survival
How it was run: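 Mice carrying a transplanted tumor received test compound or vehicle alone. The value is the measurement in the treated group divided by that in the vehicle-treated control group.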

[1] = endpoint: mean survival time, dose: 100.0 mg/kg/injection, schedule: Q01DX001 (ip), vehicle: saline
[2] = endpoint: mean survival time, dose: 200.0 mg/kg/injection, schedule: Q01DX001 (ip), vehicle: saline
[3] = endpoint: mean survival time, dose: 400.0 mg/kg/injection, schedule: Q01DX001 (ip), vehicle: saline
[4] = endpoint: mean survival time, dose: 100.0 mg/kg/injection, schedule: Q04DX003 (ip), vehicle: saline with Tween-80
[5] = endpoint: mean survival time, dose: 3.13 mg/kg/injection, schedule: Q01DX009 (ip), vehicle: saline
[6] = endpoint: mean survival time, dose: 6.25 mg/kg/injection, schedule: Q01DX009 (ip), vehicle: saline
[7] = endpoint: mean survival time, dose: 100.0 mg/kg/injection, schedule: Q01DX009 (ip), vehicle: saline with Tween-80
[8] = endpoint: mean survival time, dose: 200.0 mg/kg/injection, schedule: Q01DX009 (ip), vehicle: saline with Tween-80
[9] = endpoint: mean survival time, dose: 400.0 mg/kg/injection, schedule: Q01DX009 (ip), vehicle: saline with Tween-80
[10] = endpoint: mean survival time, dose: 100.0 mg/kg/injection, schedule: Q01DX001 (ip), vehicle: saline with Tween-80
[11] = endpoint: mean survival time, dose: 200.0 mg/kg/injection, schedule: Q01DX001 (ip), vehicle: saline with Tween-80
[12] = endpoint: mean survival time, dose: 400.0 mg/kg/injection, schedule: Q01DX001 (ip), vehicle: saline with Tween-80

COc1ccc(-c2nc3c(N)nc(N)nc3nc2N)cc1OC
T/C (endpoint: mean survival time, dose: 12.5 mg/kg/injection, schedule: Q01DX009 (ip), vehicle: water): 105 % of control | T/C (endpoint: mean survival time, dose: 25.0 mg/kg/injection, schedule: Q01DX009 (ip), vehicle: water): 103 % of control | T/C (endpoint: mean survival time, dose: 50.0 mg/kg/injection, schedule: Q01DX009 (ip), vehicle: water): 103 % of control | T/C (endpoint: mean survival time, dose: 100.0 mg/kg/injection, schedule: Q01DX009 (ip), vehicle: water): 98 % of control | T/C (endpoint: mean survival time, dose: 200.0 mg/kg/injection, schedule: Q01DX009 (ip), vehicle: water): 88 % of control

O=C1CCCC(c2ccccc2)c2ccccc21 (stereo not drawn)
T/C [1]: 97 % of control | T/C [2]: 97 % of control | T/C [3]: 97 % of control

CCOC(=O)C(C)(C)Oc1nn(Cc2ccccc2)c2ccccc12
T/C (endpoint: mean survival time, dose: 25.0 mg/kg/injection, schedule: Q04DX003 (ip), vehicle: saline with Tween-80): 104 % of control | T/C (endpoint: mean survival time, dose: 50.0 mg/kg/injection, schedule: Q04DX003 (ip), vehicle: saline with Tween-80): 102 % of control | T/C [4]: 102 % of control

N=C(N)SCc1ccccc1Cl
T/C (endpoint: mean survival time, dose: 1.56 mg/kg/injection, schedule: Q01DX009 (ip), vehicle: saline): 101 % of control | T/C [5]: 101 % of control | T/C [6]: 101 % of control

Oc1ccccc1C=Nc1ccccc1.Oc1ccccc1C=Nc1ccccc1.[Co]
T/C (endpoint: mean survival time, dose: 100.0 mg/kg/injection, schedule: Q04DX003 (ip), vehicle: other): 92 % of control

Cc1cc(S(=O)(=O)O)c(N)cc1Cl
T/C [7]: 106 % of control | T/C [8]: 92 % of control | T/C [9]: 103 % of control

COc1cc([N+](=O)[O-])c(C(=O)O)c(C(=O)O)c1OC
T/C (endpoint: mean survival time, dose: 12.5 mg/kg/injection, schedule: Q04DX002 (ip), vehicle: saline with Tween-80): 104 % of control | T/C (endpoint: mean survival time, dose: 25.0 mg/kg/injection, schedule: Q04DX002 (ip), vehicle: saline with Tween-80): 96 % of control | T/C (endpoint: mean survival time, dose: 50.0 mg/kg/injection, schedule: Q04DX002 (ip), vehicle: saline with Tween-80): 104 % of control

CC(C)CCCCN(CCCCC(C)C)CC(O)c1cc2c(c3ccccc13)CCCC2 (stereo not drawn)
T/C [10]: 94 % of control | T/C [11]: 97 % of control | T/C [12]: 102 % of control

CN(C)c1cc2c3c(c1)CCCN3CCC2
T/C [5]: 98 % of control | T/C [6]: 109 % of control | T/C (endpoint: mean survival time, dose: 12.5 mg/kg/injection, schedule: Q01DX009 (ip), vehicle: saline): 96 % of control

CC1C(OC(=O)CCl)CCC2C1(C)CCC1C2(C)CCC2(C)C3CC(C)(C)CCC3(C)CCC12C (stereo not drawn)
T/C [1]: 97 % of control | T/C [2]: 97 % of control | T/C [3]: 97 % of control

CCC[N+](CCC)(CCC)CCC.N#CC(C#N)=C([SH2+])[SH2+].N#CC(C#N)=C([SH2+])[SH2+].N#CC(C#N)=C([SH2+])[SH2+].[Fe+3]
T/C (endpoint: mean survival time, dose: 25.0 mg/kg/injection, schedule: Q04DX003 (ip), vehicle: acetone): 103 % of control | T/C (endpoint: mean survival time, dose: 50.0 mg/kg/injection, schedule: Q04DX003 (ip), vehicle: acetone): 97 % of control

O=Cc1ccc2ccccc2[n+]1[O-]
T/C (endpoint: mean survival time, dose: 100.0 mg/kg/injection, schedule: Q04DX003 (ip), vehicle: saline): 101 % of control | T/C (endpoint: mean survival time, dose: 200.0 mg/kg/injection, schedule: Q04DX003 (ip), vehicle: saline): 100 % of control | T/C (endpoint: mean survival time, dose: 400.0 mg/kg/injection, schedule: Q04DX003 (ip), vehicle: saline): 101 % of control

ClCc1ccc(CCl)cc1
T/C (endpoint: mean survival time, dose: 25.0 mg/kg/injection, schedule: Q04DX003 (ip), vehicle: Klucel (hydroxypropylcellulose) (HPC)): 98 % of control | T/C (endpoint: mean survival time, dose: 50.0 mg/kg/injection, schedule: Q04DX003 (ip), vehicle: Klucel (hydroxypropylcellulose) (HPC)): 105 % of control | T/C (endpoint: mean survival time, dose: 100.0 mg/kg/injection, schedule: Q04DX003 (ip), vehicle: Klucel (hydroxypropylcellulose) (HPC)): 89 % of control

Nc1ccc2nc3c4ccccc4c(O)n3nc2c1
T/C [7]: 89 % of control | T/C [8]: 104 % of control

c1nc(SSc2ncnc3nc[nH]c23)c2[nH]cnc2n1
T/C (endpoint: mean survival time, dose: 12.5 mg/kg/injection, schedule: Q01DX009 (ip), vehicle: saline with Tween-80): 186 % of control | T/C (endpoint: mean survival time, dose: 25.0 mg/kg/injection, schedule: Q01DX009 (ip), vehicle: saline with Tween-80): 151 % of control | T/C (endpoint: mean survival time, dose: 30.0 mg/kg/injection, schedule: Q01DX001 (ip), vehicle: saline with Tween-80): 150 % of control | T/C (endpoint: mean survival time, dose: 66.0 mg/kg/injection, schedule: Q01DX001 (ip), vehicle: saline with Tween-80): 157 % of control | T/C [10]: 155 % of control | T/C (endpoint: mean survival time, dose: 150.0 mg/kg/injection, schedule: Q01DX001 (ip), vehicle: saline with Tween-80): 162 % of control

COC(=O)C(CCCCN)NS(=O)(=O)c1ccccc1 (stereo not drawn)
T/C [7]: 96 % of control | T/C [4]: 109 % of control | T/C [8]: 100 % of control | T/C (endpoint: mean survival time, dose: 200.0 mg/kg/injection, schedule: Q04DX003 (ip), vehicle: saline with Tween-80): 91 % of control | T/C [9]: 96 % of control | T/C (endpoint: mean survival time, dose: 400.0 mg/kg/injection, schedule: Q04DX003 (ip), vehicle: saline with Tween-80): 103 % of control

SCCS
T/C (endpoint: mean survival time, dose: 50.0 mg/kg/injection, schedule: Q01DX009 (ip), vehicle: saline with Tween-80): 105 % of control | T/C [7]: 105 % of control | T/C [8]: 94 % of control | T/C (endpoint: mean survival time, dose: 200.0 mg/kg/injection, schedule: Q04DX002 (ip), vehicle: saline with Tween-80): 91 % of control

Fc1ccc(N2CCNCC2)cc1
T/C (endpoint: mean survival time, dose: 12.5 mg/kg/injection, schedule: Q04DX003 (ip), vehicle: saline): 101 % of control | T/C (endpoint: mean survival time, dose: 25.0 mg/kg/injection, schedule: Q04DX003 (ip), vehicle: saline): 103 % of control | T/C (endpoint: mean survival time, dose: 50.0 mg/kg/injection, schedule: Q04DX003 (ip), vehicle: saline): 92 % of control

Cn1c(=O)[nH]c2c(c1=O)CCO2
T/C [1]: 103 % of control | T/C [2]: 97 % of control | T/C [3]: 100 % of control

CS(=O)(=O)CS(=O)(=O)OCCCl
T/C (endpoint: median survival time, dose: 6.25 mg/kg/injection, schedule: Q01DX009 (ip), vehicle: saline with Tween-80): 116 % of control and 121 % of control | T/C (endpoint: median survival time, dose: 12.5 mg/kg/injection, schedule: Q01DX009 (ip), vehicle: saline with Tween-80): 168 % of control | T/C (endpoint: median survival time, dose: 25.0 mg/kg/injection, schedule: Q01DX009 (ip), vehicle: saline with Tween-80): 207 % of control and 228 % of control | T/C (endpoint: median survival time, dose: 25.0 mg/kg/injection, schedule: Q01DX009 (ip), vehicle: saline): 197 % of control | T/C (endpoint: median survival time, dose: 50.0 mg/kg/injection, schedule: Q01DX009 (ip), vehicle: saline with Tween-80): 370 % of control and 722 % of control | T/C (endpoint: median survival time, dose: 50.0 mg/kg/injection, schedule: Q01DX009 (ip), vehicle: saline): 352 % of control | T/C (endpoint: median survival time, dose: 100.0 mg/kg/injection, schedule: Q01DX009 (ip), vehicle: saline with Tween-80): 370 % of control | T/C (endpoint: median survival time, dose: 100.0 mg/kg/injection, schedule: Q01DX009 (ip), vehicle: saline): 352 % of control

CSCc1cn(C2CC(O)C(CO)O2)c(=O)[nH]c1=O (stereo not drawn)
T/C (endpoint: mean survival time, dose: 12.5 mg/kg/injection, schedule: Q01DX005 (ip), vehicle: water): 95 % of control | T/C (endpoint: mean survival time, dose: 25.0 mg/kg/injection, schedule: Q01DX005 (ip), vehicle: water): 98 % of control | T/C (endpoint: mean survival time, dose: 50.0 mg/kg/injection, schedule: Q01DX005 (ip), vehicle: water): 98 % of control | T/C (endpoint: mean survival time, dose: 100.0 mg/kg/injection, schedule: Q01DX005 (ip), vehicle: water): 95 % of control | T/C (endpoint: mean survival time, dose: 200.0 mg/kg/injection, schedule: Q01DX005 (ip), vehicle: water): 95 % of control

CCCC(=O)C1=C(O)C(CC2=C(O)C(C)(C)C(=O)C(C(=O)CCC)=C2O)=C(O)C(C)(C)C1=O
T/C [1]: 98 % of control | T/C [2]: 101 % of control

O=C1c2cc([N+](=O)[O-])ccc2-c2ccc([N+](=O)[O-])cc21
T/C (endpoint: mean survival time, dose: 12.5 mg/kg/injection, schedule: Q01DX009 (ip), vehicle: Klucel (hydroxypropylcellulose) (HPC)): 98 % of control | T/C (endpoint: mean survival time, dose: 25.0 mg/kg/injection, schedule: Q01DX009 (ip), vehicle: Klucel (hydroxypropylcellulose) (HPC)): 95 % of control | T/C (endpoint: mean survival time, dose: 50.0 mg/kg/injection, schedule: Q01DX009 (ip), vehicle: Klucel (hydroxypropylcellulose) (HPC)): 102 % of control

COc1ccc(Cc2cncc3cc(OC)c(OC)cc23)cc1OC
T/C [1]: 101 % of control | T/C [2]: 96 % of control

CCOC(=O)Nc1cc([N+](C)(C)C)ccc1OCCOc1ccc([N+](C)(C)C)cc1
T/C (endpoint: mean survival time, dose: 0.15 mg/kg/injection, schedule: Q04DX003 (ip), vehicle: Klucel (hydroxypropylcellulose) (HPC)): 100 % of control | T/C (endpoint: mean survival time, dose: 0.3 mg/kg/injection, schedule: Q04DX003 (ip), vehicle: Klucel (hydroxypropylcellulose) (HPC)): 90 % of control | T/C (endpoint: mean survival time, dose: 0.6 mg/kg/injection, schedule: Q04DX003 (ip), vehicle: Klucel (hydroxypropylcellulose) (HPC)): 100 % of control

C[N+](C)(C)Cc1c[nH]c2ccccc12
T/C [10]: 94 % of control | T/C [11]: 91 % of control | T/C [12]: 96 % of control
